From PMC11705217, “Substrate preference, RNA binding and active site versatility of Stenotrophomonas maltophilia nuclease SmNuc1, explained by a structural study” (The Febs Journal, 2024)

Molecular target: T1, SmNuc1 (SmNuc1WT) (Stenotrophomonas maltophilia, UniProt B2FSF8)
T1 construct: gene Smlt3806; mature enzyme of 246 residues, 28 kDa, N-terminal Trp27 (native signal removed, expressed with MalE signal peptide), C-terminal His-tag kept, pET303/CT-His, E. coli Lemo21(DE3); three Zn2+ in active site
Test: in crystallo cleavage (crystal soak, […]), X-ray structure shows product […]'-GMP
Type: biochemical
Details: pH 6.5; only product 5'-GMP seen in structure 9EMG

Nc1nc2c(ncn2[C@@H]2O[C@@H]3COP(=O)(O)O[C@H]4[C@@H](O)[C@H](n5cnc6c(=O)[nH]c(N)nc65)O[C@@H]4COP(=O)(O)O[C@H]3[C@H]2O)c(=O)[nH]1 [c‐di‐GMP]
in crystallo cleavage (crystal soak, 5 mM), X-ray structure shows product 5'-GMP: c‐di‐GMP was soaked into a crystal of SmNuc1, resulting in the SmNuc1:GMP* structure
